Laboratory results as given in ChEMBL document CHEMBL1201862, “PubChem BioAssay data set” (2004).
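Test compounds were applied to cells in 96-well plates for 48 hours at 5 doses. At the GI50, growth is halved.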 Calls of active or inactive are those of the source. Rule as the data show it: active = GI50 up to about 1.1 µM and inactive = higher.

Tests used:
Assay in all cases: NCI tumour cell line growth inhibition, 48 h
786-0 = test system: 786-0
A498 = test system: A498
A549 = test system: A549
ACHN = test system: ACHN
BT-549 = test system: BT-549
CAKI-1 = test system: CAKI-1
CCRF-CEM = test system: CCRF-CEM
COLO 205 = test system: COLO 205
DLD-1 = test system: DLD-1
DMS-114 = test system: DMS-114
DMS-273 = test system: DMS-273
DU-145 = test system: DU-145
EKVX = test system: EKVX
HCC 2998 = test system: HCC 2998
HCT-116 = test system: HCT-116
HCT-15 = test system: HCT-15
HL-60 = test system: HL-60
HOP-62 = test system: HOP-62
HOP-92 = test system: HOP-92
HT-29 = test system: HT-29
Hs-578T = test system: Hs-578T
IGROV-1 = test system: IGROV-1
K562 = test system: K562
KM-20L2 = test system: KM-20L2
KM12 = test system: KM12
LOX IMVI = test system: LOX IMVI
LXFL 529 = test system: LXFL 529
M14 = test system: M14
MCF7 = test system: MCF7
MDA-MB-231 = test system: MDA-MB-231
MDA-MB-435 = test system: MDA-MB-435
MDA-N = test system: MDA-N
MOLT-4 = test system: MOLT-4
Malme-3M = test system: Malme-3M
NCI-H226 = test system: NCI-H226
NCI-H23 = test system: NCI-H23
NCI-H460 = test system: NCI-H460
NCI-H522 = test system: NCI-H522
NCI/ADR-RES = test system: NCI/ADR-RES
OVCAR-3 = test system: OVCAR-3
OVCAR-4 = test system: OVCAR-4
OVCAR-5 = test system: OVCAR-5
OVCAR-8 = test system: OVCAR-8
PC-3 = test system: PC-3
RPMI-8226 = test system: RPMI-8226
RXF 393 = test system: RXF 393
RXF 631 = test system: RXF 631
SF-268 = test system: SF-268
SF-295 = test system: SF-295
SF-539 = test system: SF-539
SK-MEL-28 = test system: SK-MEL-28
SK-MEL-2 = test system: SK-MEL-2
SK-MEL-5 = test system: SK-MEL-5
SK-OV-3 = test system: SK-OV-3
SN12C = test system: SN12C
SNB-19 = test system: SNB-19
SNB-75 = test system: SNB-75
SNB-78 = test system: SNB-78
SR = test system: SR
SW-620 = test system: SW-620
T47D = test system: T47D
TK-10 = test system: TK-10
U-251 = test system: U-251
UACC-257 = test system: UACC-257
UACC-62 = test system: UACC-62
UO-31 = test system: UO-31
M19-MEL = test system: M19-MEL

Compound: CCCCCCN(CCCCCC)C(=S)N/N=C(\C)c1ccccn1
- GI50 (786-0): 971 nM (active)
- GI50 (A498): 1860 nM (inactive)
- GI50 (A549): 1520 nM (inactive)
- GI50 (ACHN): 703 nM (active)
- GI50 (BT-549): 1680 nM (inactive)
- GI50 (CAKI-1): 836 nM (active)
- GI50 (CCRF-CEM): 161 nM (active)
- GI50 (COLO 205): 321 nM (active)
- GI50 (DLD-1): 1260 nM (inactive)
- GI50 (DMS-114): 571 nM (active)
- GI50 (DMS-273): 1630 nM (inactive)
- GI50 (DU-145): 1280 nM (inactive)
- GI50 (EKVX): 531 nM (active)
- GI50 (HCC 2998): 1610 nM (inactive)
- GI50 (HCT-116): 1090 nM (active)
- GI50 (HCT-15): 581 nM
- GI50 (HL-60): 76.7 nM (active)
- GI50 (HOP-62): 1210 nM (inactive)
- GI50 (HOP-92): 906 nM (active)
- GI50 (HT-29): 1510 nM (inactive)
- GI50 (Hs-578T): 1090 nM (active)
- GI50 (IGROV-1): 955 nM (active)
- GI50 (K562): 105 nM (active)
- GI50 (KM-20L2): 673 nM (active)
- GI50 (KM12): 1050 nM (active)
- GI50 (LOX IMVI): 838 nM (active)
- GI50 (LXFL 529): 208 nM (active)
- GI50 (M14): 760 nM (active)
- GI50 (MCF7): 1530 nM (inactive)
- GI50 (MDA-MB-231): 1150 nM (inactive)
- GI50 (MDA-MB-435): 708 nM (active)
- GI50 (MDA-N): 1320 nM (inactive)
- GI50 (MOLT-4): 179 nM (active)
- GI50 (Malme-3M): 1340 nM (inactive)
- GI50 (NCI-H226): 622 nM (active)
- GI50 (NCI-H23): 1240 nM (inactive)
- GI50 (NCI-H460): 1090 nM (active)
- GI50 (NCI-H522): 527 nM (active)
- GI50 (NCI/ADR-RES): 1370 nM (inactive)
- GI50 (OVCAR-3): 506 nM (active)
- GI50 (OVCAR-4): 457 nM (active)
- GI50 (OVCAR-5): 1630 nM (inactive)
- GI50 (OVCAR-8): 815 nM (active)
- GI50 (PC-3): 265 nM (active)
- GI50 (RPMI-8226): 117 nM (active)
- GI50 (RXF 393): 973 nM (active)
- GI50 (RXF 631): 1020 nM (active)
- GI50 (SF-268): 345 nM (active)
- GI50 (SF-295): 1530 nM (inactive)
- GI50 (SF-539): 1090 nM (active)
- GI50 (SK-MEL-28): 1040 nM (active)
- GI50 (SK-MEL-2): 1060 nM (active)
- GI50 (SK-MEL-5): 1030 nM (active)
- GI50 (SK-OV-3): 1400 nM (inactive)
- GI50 (SN12C): 957 nM (active)
- GI50 (SNB-19): 1310 nM (inactive)
- GI50 (SNB-75): 577 nM (active)
- GI50 (SNB-78): 711 nM (active)
- GI50 (SR): 436 nM (active)
- GI50 (SW-620): 718 nM (active)
- GI50 (T47D): 269 nM (active)
- GI50 (TK-10): 993 nM (active)
- GI50 (U-251): 393 nM (active)
- GI50 (UACC-257): 1600 nM (inactive)
- GI50 (UACC-62): 1000 nM (active)
- GI50 (UO-31): 344 nM (active)

Compound: CCN(CC)C(c1ccc(N(C)C)cc1)C(c1ccc(N(C)C)cc1)N(CC)CC (centres undefined)
- GI50 (786-0): 61200 nM (inactive)
- GI50 (A498): > 72900 nM (inactive)
- GI50 (A549): > 72900 nM (inactive)
- GI50 (ACHN): 47000 nM (inactive)
- GI50 (CAKI-1): 25900 nM (inactive)
- GI50 (CCRF-CEM): 26000 nM (inactive)
- GI50 (COLO 205): 43300 nM (inactive)
- GI50 (DMS-114): 14500 nM (inactive)
- GI50 (DMS-273): 44800 nM (inactive)
- GI50 (EKVX): > 72900 nM (inactive)
- GI50 (HCC 2998): 40400 nM (inactive)
- GI50 (HCT-116): 35200 nM (inactive)
- GI50 (HCT-15): 30200 nM
- GI50 (HL-60): 14800 nM (inactive)
- GI50 (HOP-62): 61500 nM (inactive)
- GI50 (HOP-92): 13200 nM (inactive)
- GI50 (HT-29): 21600 nM (inactive)
- GI50 (IGROV-1): 47600 nM (inactive)
- GI50 (K562): 15800 nM (inactive)
- GI50 (KM-20L2): 64000 nM (inactive)
- GI50 (KM12): 22900 nM (inactive)
- GI50 (LXFL 529): 30300 nM (inactive)
- GI50 (M14): 33300 nM (inactive)
- GI50 (M19-MEL): 23900 nM (inactive)
- GI50 (MOLT-4): 30300 nM (inactive)
- GI50 (Malme-3M): 17000 nM (inactive)
- GI50 (NCI-H226): 27300 nM (inactive)
- GI50 (NCI-H23): 48300 nM (inactive)
- GI50 (NCI-H460): 69200 nM (inactive)
- GI50 (NCI-H522): > 7290 nM (inactive)
- GI50 (OVCAR-3): 21500 nM (inactive)
- GI50 (OVCAR-4): 12900 nM (inactive)
- GI50 (OVCAR-5): > 72900 nM (inactive)
- GI50 (OVCAR-8): > 72900 nM (inactive)
- GI50 (RPMI-8226): 21900 nM (inactive)
- GI50 (RXF 393): 25900 nM (inactive)
- GI50 (RXF 631): > 72900 nM (inactive)
- GI50 (SF-268): 65000 nM (inactive)
- GI50 (SF-295): 39200 nM (inactive)
- GI50 (SF-539): 36500 nM (inactive)
- GI50 (SK-MEL-28): 26400 nM (inactive)
- GI50 (SK-MEL-2): 22800 nM (inactive)
- GI50 (SK-MEL-5): 16800 nM (inactive)
- GI50 (SK-OV-3): > 72900 nM (inactive)
- GI50 (SN12C): > 72900 nM (inactive)
- GI50 (SNB-19): 62800 nM (inactive)
- GI50 (SNB-75): 14200 nM (inactive)
- GI50 (SNB-78): 21200 nM (inactive)
- GI50 (SW-620): 21400 nM (inactive)
- GI50 (TK-10): > 72900 nM (inactive)
- GI50 (U-251): > 72900 nM (inactive)
- GI50 (UACC-257): 36600 nM (inactive)
- GI50 (UACC-62): 20100 nM (inactive)
